The structures appear in SMILES notation.

The target in data set [1] is T1, Amine oxidase [flavin-containing] A (Rattus norvegicus, UniProt P21396).
T1 sequence (P21396 whole entry): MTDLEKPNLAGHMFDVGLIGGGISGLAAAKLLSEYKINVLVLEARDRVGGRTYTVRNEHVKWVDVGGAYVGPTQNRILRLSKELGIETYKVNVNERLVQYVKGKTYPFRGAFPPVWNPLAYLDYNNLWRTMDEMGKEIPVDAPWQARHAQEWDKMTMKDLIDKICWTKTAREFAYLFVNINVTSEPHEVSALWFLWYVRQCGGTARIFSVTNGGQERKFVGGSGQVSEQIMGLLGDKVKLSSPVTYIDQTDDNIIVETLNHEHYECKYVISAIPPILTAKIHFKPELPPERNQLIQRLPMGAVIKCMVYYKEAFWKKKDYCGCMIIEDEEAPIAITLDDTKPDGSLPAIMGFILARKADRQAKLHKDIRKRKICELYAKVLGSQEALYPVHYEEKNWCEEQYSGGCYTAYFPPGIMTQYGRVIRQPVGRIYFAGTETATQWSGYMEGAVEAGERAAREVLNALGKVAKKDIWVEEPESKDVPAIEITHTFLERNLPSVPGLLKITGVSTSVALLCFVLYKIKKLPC
The data set is described as follows: Inhibition of MAO-A in rat liver mitochondria using p-tyramine as substrate preincubated for 10 mins followed by substrate addition measured after 30 mins in presence of MAO-B inhibitor deprenyl by Amplex red dye-based fluorescence assay.

For data set [2], the species on record is Rattus norvegicus. The experiment in a line: Selectivity index, ratio of IC50 for MAO-A in rat liver mitochondria to IC50 for MAO-B in rat liver mitochondria.
For data set [3], the target named is T2, Amine oxidase [flavin-containing] B (Rattus norvegicus, UniProt P19643).
T2 sequence (P19643 whole entry): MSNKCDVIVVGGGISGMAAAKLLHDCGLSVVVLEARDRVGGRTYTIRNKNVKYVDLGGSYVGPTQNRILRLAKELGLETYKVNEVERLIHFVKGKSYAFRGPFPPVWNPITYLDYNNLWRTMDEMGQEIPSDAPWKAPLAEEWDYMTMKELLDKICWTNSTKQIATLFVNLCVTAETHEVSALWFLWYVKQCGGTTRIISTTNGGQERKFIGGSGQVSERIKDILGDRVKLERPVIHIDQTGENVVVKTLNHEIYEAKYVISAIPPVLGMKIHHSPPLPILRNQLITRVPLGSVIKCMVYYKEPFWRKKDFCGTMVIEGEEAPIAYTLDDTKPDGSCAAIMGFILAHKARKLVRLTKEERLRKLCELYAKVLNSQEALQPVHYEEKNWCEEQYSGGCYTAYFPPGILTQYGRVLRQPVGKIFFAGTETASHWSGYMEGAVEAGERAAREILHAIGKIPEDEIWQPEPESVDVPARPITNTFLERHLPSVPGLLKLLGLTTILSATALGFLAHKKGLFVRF
The experiment in a line: Inhibition of MAO-B in rat liver mitochondria using p-tyramine as substrate preincubated for 10 mins followed by substrate addition measured after 30 mins in presence of MAO-A inhibitor clorgyline by Amplex red dye-based fluorescence assay.

Data set [4] deals with T1, Amine oxidase [flavin-containing] A. The experiment in a line: Competitive inhibition of MAO-A in rat liver mitochondria using p-tyramine as substrate up to 0.15 uM preincubated for 10 mins followed by substrate addition measured after 30 mins by Lineweaver-burk plot analysis. The note with it: 0.5 h.

By IC50 is commonly meant the midpoint of a concentration-inhibition curve. For `C/C(=N\NC(=O)C1=C(O)c2ccccc2S(=O)(=O)N1)c1ccccc1`, the 50% inhibitory concentration (IC50) was 110 nM in data set [1] and 3330 nM in data set [3]. In addition, the Ratio IC50 in data set [2] came to 0.03. Also, the “inhibition (INH)” value in data set [4] is on record as “Active”.

The values are drawn from ChEMBL document CHEMBL4138153, “Synthesis, monoamine oxidase inhibition activity and molecular docking studies of novel 4-hydroxy-N'-[benzylidene or 1-phenylethylidene]-2-H/methyl/benzyl-1,2-benzothiazine-3-carbohydrazide 1,1-dioxides” (Eur J Med Chem, 2018).
